# Several values for one entry are separate records, joined by “and”; a condition that tells them apart may be missing. Equal values may be shown once. Read-outs that look alike come from different tables or passages of the source.
# Assays:
# [1] = set-up: method as in PMID 11472245; details: calibration set of compounds, predefined values; cited from earlier work
# [2] = cited from earlier work
# [3] = Estimated total plasma protein binding from biomimetic HPLC data (model equation); details: from % HSA, % AGP and lipophilicity, standard 6 min protocol; for fraction unbound: human, read-out: Estimated % plasma protein binding (PPB) (converted)
# Source text: (§1) Thus, the regression coefficients in linear regression analysis are meaningful and reflect to the physiological proportion of the albumin and phospholipids in the body. […] They are based on the calibrated retention times obtained on C-18, IAM, Chiralpak HSA and Chiralpak AGP columns.
# [4] = Estimated volume of distribution, unbound volume of distribution and drug efficiency from biomimetic HPLC data; details: standard 6 min protocol data
# Source text: as §1
# AGP [5] = details: cited from earlier work
# [6] = Human plasma protein binding by rapid equilibrium dialysis (RED); type: in vitro ADME; details: 100 % pooled human plasma, pH 7.4, 37 °C
# Method: The test compounds were prepared in 100 % pooled human plasma. The measurement was performed using equilibrium dialysis with the two compartments separated by a semi-permeable membrane. The plasma solution was added to one side of the membrane while buffer (pH 7.4) was added to the other side. The system was allowed to reach equilibrium at 37 °C. Compound concentration on both sides of the membrane was measured by LC-MS/MS, and the fraction of unbound compound calculated. Calibration standards were prepared in plasma and buffer. Test compound incubations were performed in triplicate. A control compound was included in each experiment. The solutions for each batch of compounds were combined into two groups (protein-free and protein-containing). Cassette analysed by LC-MS/MS using two sets of calibration standards for protein-free solutions (7 points) and protein-containing solutions (7 points). The experiments were carried out at Cyprotex Discovery Ltd (UK) and repeated at Sygnature Discovery Ltd (UK) laboratories using their generic LC/MS method. The unbound fraction (fu) is calculated from the concentration of the test compound in the protein-containing side Cp and the protein-free side Cf based on the formula: […]
# [7] = test system: α-1-acid-glycoprotein (AGP); assay: Glycoprotein binding by biomimetic HPLC on Chiralpak AGP column; details: for % AGP bound: standard 6 min IPA gradient up to 35 %, pH 7.4, racemate; for calculated % binding, AGP 5 % IPA: isocratic 5 % IPA; for calculated % binding, AGP 5 % IPA / calculated % binding, AGP 8 % IPA / calculated % binding, AGP 15 % IPA: 1.2 mL/min; for calculated % binding, AGP 8 % IPA: isocratic 8 % IPA; for calculated % binding, AGP 15 % IPA: isocratic 15 % IPA
# Method: (§2) The protein binding measurements were carried out on Chiralpak HSA and Chiralpak AGP columns with the dimensions of 3 x 50 mm with 5 um particle size stationary phase (Chiril Technologies Europe, France). The mobile phase was 50 mM ammonium acetate adjusted to pH 7.4 with a flow rate of 1.2 mL/min. […] The cycle time was 6 min with an additional 1 min re-equilibration time.
# (§3) The cycle time was 8 min plus an additional 1 min re-equilibration time.
# [8] = cited from earlier work; remark: listed apart in the source
# [9] = Estimated lung tissue binding from biomimetic HPLC data (model equation); details: standard 6 min protocol data
# Source text: as §1
# [10] = Phospholipid binding at pH 7.4 on Immobilized Artificial Membrane (IAM) HPLC column; type: physicochemical; details: pH 7.4, standard 6 min protocol
# Method: The phospholipid-binding was measured using an IAM PC.DD2 column with dimensions of 100 x 4.6 mm (Regis Technologies Inc., Morton Grove, IL, USA). The gradient retention times of the compounds were measured using a 50 mM ammonium acetate starting mobile phase with the pH adjusted to 7.4. The mobile phase flow rate was 1.5 mL/min. […] The cycle time was 6 min plus an additional 1 min equilibration time was applied while the injector prepared for the next injection. The gradient retention times were calibrated with the acetophenone homologues for which the CHI IAM values have been established using isocratic measurements [26]. The Chromatographic Hydrophobicity Index on the IAM column [CHI(IAM)] approximates to the acetonitrile concentration in the mobile phase when the compound elutes. CHI(IAM) values above 45 indicate strong phospholipid binding. Repeating the retention time measurements provided the error only in the third digit of the minute (±0.005).
# [11] = target: human serum albumin (HSA) (Homo sapiens, UniProt P02768); assay: Albumin binding by biomimetic HPLC on Chiralpak HSA column; details: for fraction unbound: human, Chiralpak HSA HPLC column (immobilised human serum albumin), pH 7.4; for % HSA bound: standard 6 min IPA gradient up to 35 %, pH 7.4, racemate; for log k (HSA): standard 6 min IPA gradient, racemate; for calculated % binding, HSA 5 % IPA: isocratic 5 % IPA, partial calibration set; for calculated % binding, HSA 15 % IPA: isocratic 15 % IPA
# Sequence of human serum albumin (HSA) (P02768 25-609): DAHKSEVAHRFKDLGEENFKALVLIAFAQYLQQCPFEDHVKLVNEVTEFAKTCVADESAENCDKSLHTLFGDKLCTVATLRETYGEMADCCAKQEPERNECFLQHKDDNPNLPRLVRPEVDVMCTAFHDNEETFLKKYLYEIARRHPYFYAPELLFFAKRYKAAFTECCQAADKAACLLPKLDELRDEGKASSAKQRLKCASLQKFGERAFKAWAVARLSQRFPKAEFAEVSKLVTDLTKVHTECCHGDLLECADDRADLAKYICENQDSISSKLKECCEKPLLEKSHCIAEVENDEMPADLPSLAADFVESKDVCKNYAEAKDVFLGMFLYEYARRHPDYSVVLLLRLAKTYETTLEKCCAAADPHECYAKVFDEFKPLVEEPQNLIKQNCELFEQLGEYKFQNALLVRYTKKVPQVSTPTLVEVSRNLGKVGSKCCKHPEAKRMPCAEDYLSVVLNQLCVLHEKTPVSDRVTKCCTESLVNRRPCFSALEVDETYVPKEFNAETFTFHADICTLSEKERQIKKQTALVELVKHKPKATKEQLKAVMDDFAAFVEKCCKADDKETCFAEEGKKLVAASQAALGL
# Method: as §2, §3
# [12] = both in animals and in human; cited from earlier work
# [13] = Estimated brain tissue binding and brain to blood ratio from biomimetic HPLC data (model equations); details: standard 6 min protocol data; for %BTB: brain tissue binding; for Kp at 0.1 h: read-out: Brain to plasma
# Source text: as §1
# AGP [14] = assay: Literature AGP binding by equilibrium dialysis
# HSA [15] = test system: HSA
# HSA [16] = details: cited from earlier work; for % HSA: calibration drugs, equilibrium dialysis literature % binding
# [17] = Phospholipidotic potential (CAD-likeness) from CHI values; details: CHI (IAM) + (CHI at pH 10.5 – CHI at pH 7.4)
# [18] = Chromatographic Hydrophobicity Index (CHI) lipophilicity at three pHs, C-18 gradient HPLC; type: physicochemical
# Method: Gemini NX C-18(2) 5 um columns with dimensions of 3 x 50 mm (Phenomenex Ltd. Macclesfield, UK) were used for the determination of the Chromatographic Hydrophobicity Index (CHI) and the CHIlogD values. […] An acetonitrile linear gradient was used from 0 to 100 %. The acetonitrile concentration reached 100 % in 3.5 min. The 100 % acetonitrile mobile phase was maintained for an additional 1 min before it was returned to 0 % at 4.7 min. The cycle time of the gradient run was 6 min, with an additional equilibration time of 1 min before the next injection. The error in the retention time measurements is ±0.005 min in general after repeated injections.
# [19] = Estimated cell partition coefficient from IAM binding (model equation); details: standard 6 min protocol data
# Source text: as §1
# [20] = calibration compounds, literature value, no reference given; cited from earlier work
# [21] = calibration drugs, equilibrium dialysis literature % binding
smiles,measurement,setting,value
CC(=O)c1ccccc1 [Acetophenone],CHI at pH 2.6,[1],64.1
same,CHI at pH 7.4,[1],65.1
same,CHI at pH 10.5,[1],64.1
c1ccc2[nH]cnc2c1 [Benzimidazole],CHI at pH 2.6,[1],6.3
same,CHI at pH 7.4,[1],34.3
same,CHI at pH 10.5,[1],30.6
CCCC(=O)c1ccccc1 [Butyrophenone],CHI at pH 2.6,[1],87.3
same,CHI at pH 7.4,[1],87.5
same,CHI at pH 10.5,[1],87.3
"CCN(CC)CCCC(C)Nc1ccnc2cc(Cl)ccc12 (stereo not drawn) [CQ, Chloroquine]",Measured log I (ChemSpider),[2],2.68-4.63
same,Estimated % plasma protein binding (PPB),[3],94.8%
same,fraction unbound,[3],0.05
same,Vd,[4],6.9 L/kg
same,Vdu,[4],56.1 L/kg
same,% AGP bound,AGP [5],48.4%
same,fraction unbound,[6],0.474
same,% AGP bound,[7],88.8%
same,volume of distribution described in the literature,[8],over 100 L/kg
same,% LTB,[9],96.3%
same,log k (IAM),[10],2.6
same,fraction unbound,[11],0.178
same,% HSA bound,[11],87% and 87.6%
same,log k (HSA),[11],0.8
same,phospholipidosis,[12],causes phospholipidosis
same,%BTB,[13],98.4%
same,Kp at 0.1 h,[13],3.4
NC(=O)N1c2ccccc2C=Cc2ccccc21 [Carbamazepine],log k (AGP),AGP [14],0.3
same,% AGP,AGP [5]; [21],65%
same,log k (HSA),HSA [15],0.5
same,% HSA,HSA [16],75.0%
COc1cc2c(c(OC)c1OC)-c1ccc(OC)c(=O)cc1[C@@H](NC(C)=O)CC2 [Colchicine],CHI at pH 2.6,[1],43.9
same,CHI at pH 7.4,[1],45.0
same,CHI at pH 10.5,[1],43.9
O=C(O)Cc1ccccc1Nc1c(Cl)cccc1Cl [Diclofenac],log k (AGP),AGP [14],0.2
"CCN(CCO)CCCC(C)Nc1ccnc2cc(Cl)ccc12 (stereo not drawn) [HCQ, hydroxy-chloroquine]",Estimated % plasma protein binding (PPB),[3],93.4%
same,fraction unbound,[3],0.07
same,Vd,[4]; human,5.8 L/kg
same,Vd,[4],5.1 L/kg
same,Vdu,[4],38.8 L/kg
same,% AGP bound,AGP [5]; equilibrium dialysis method,34%
same,fraction unbound,[6],0.693
same,% AGP bound,[7],89.0%
same,log k (AGP),"[7]; standard 6 min IPA gradient, racemate",0.9
same,Phospholipidotic potential (CAD-likeness),[17],73.6
same,volume of distribution described in the literature,[8],over 100 L/kg
same,Vd,[8]; healthy volunteers,above 4000 L/kg
same,% LTB,[9],93.9%
same,chromatographic logD,"[18]; Gemini NX C-18(2) HPLC column, pH 7.4, C-18 gradient HPLC, racemate not resolved, read-out: CHI log D (pH 7.4)",0.66
same,chromatographic logP,"[18]; from pH 10.5 mobile phase, read-out: CHI log P",2.13
same,log k (IAM),[10],2.5
same,Kpcell,[19],7.3
same,% HSA bound,HSA [16]; equilibrium dialysis method,40%
same,fraction unbound,[11],0.181
same,% HSA bound,[11],84.9%
same,log k (HSA),[11],0.7
same,%BTB,[13],97.6%
same,est log k BB,[13],0.8
same,Kp at 0.1 h,[13],2.8
c1ccc2[nH]ccc2c1 [Indole],CHI at pH 2.6,[1],72.1
same,CHI at pH 7.4,[1],71.5
same,CHI at pH 10.5,[1],72.1
COc1ccc2c(c1)c(CC(=O)O)c(C)n2C(=O)c1ccc(Cl)cc1 [Indomethacin],log k (AGP),AGP [14],0.1
same,% AGP,AGP [5]; [21],56%
same,log k (HSA),HSA [15],1.8
COC(=O)C1=C(C)NC(C)=C(C(=O)OCCN(C)Cc2ccccc2)C1c1cccc([N+](=O)[O-])c1 (stereo not drawn) [Nicardipine],log k (AGP),AGP [14],0.8
same,% AGP,AGP [5]; [21],87%
same,log k (HSA),HSA [15],1.2
same,"calculated % binding, AGP 5 % IPA",[7],>8 min (>98 %)
same,"calculated % binding, AGP 8 % IPA",[7],5.63 (98 %)
same,"calculated % binding, AGP 15 % IPA",[7],5.0 (96 %)
same,% PPB (binds to plasma proteins),[20],nicardipine (96 % PPB)
same,"calculated % binding, HSA 5 % IPA",[11]; 1.2 mL/min,6 (96 %)
same,"calculated % binding, HSA 15 % IPA",[11]; 1.2 mL/min,1.05 (95 %)
CNC(=C[N+](=O)[O-])NCCSCc1csc(CN(C)C)n1 [Nizatidine],log k (AGP),AGP [14],-0.2
same,% AGP,AGP [5]; [21],37.1%
same,log k (HSA),HSA [15],-0.6
same,% HSA,HSA [16],20.4%
CC(=O)Nc1ccc(O)cc1 [Paracetamol],log k (AGP),AGP [14],-1.5
same,% AGP,AGP [5]; [21],3.2%
same,log k (HSA),HSA [15],-0.8
same,% HSA,HSA [16],14.0%
c1ccc(-c2nn[nH]n2)cc1 [Phenyl tetrazole],CHI at pH 2.6,[1],42.2
same,CHI at pH 7.4,[1],23.6
same,CHI at pH 10.5,[1],16.0
Cn1c(=O)c2nc(-c3ccccc3)[nH]c2n(C)c1=O [Phenyl theophylline],CHI at pH 2.6,[1],51.7
same,CHI at pH 7.4,[1],51.2
same,CHI at pH 10.5,[1],51.3
CCC(=O)c1ccccc1 [Propiophenone],CHI at pH 2.6,[1],77.4
same,CHI at pH 7.4,[1],77.4
same,CHI at pH 10.5,[1],77.4
CC(C)NCC(O)COc1cccc2ccccc12 (stereo not drawn) [Propranolol],log k (AGP),AGP [14],0.8
same,% AGP,AGP [5]; [21],86%
same,log k (HSA),HSA [15],0.3
same,"calculated % binding, AGP 5 % IPA",[7],2.78 (85 %)
same,"calculated % binding, AGP 8 % IPA",[7],1.73 (68 %)
same,"calculated % binding, AGP 15 % IPA",[7],1.58 (67 %)
same,% PPB (binds to plasma proteins),[20],propranolol (66 % PPB)
same,% HSA,HSA [16],66.6%
same,"calculated % binding, HSA 5 % IPA",[11]; 1.2 mL/min,0.76 (54 %)
same,"calculated % binding, HSA 8 % IPA","[11]; isocratic 8 % IPA, 1.2 mL/min",0.73 (57.6 %)
same,"calculated % binding, HSA 15 % IPA",[11]; 1.2 mL/min,0.58 (66 %)
Cn1c(=O)c2[nH]cnc2n(C)c1=O [Theophylline],CHI at pH 2.6,[1],17.9
same,CHI at pH 7.4,[1],18.4
same,CHI at pH 10.5,[1],5.0
COc1cc(Cc2cnc(N)nc2N)cc(OC)c1OC [Trimethoprim],log k (AGP),AGP [14],-0.1
same,% AGP,AGP [5]; [21],46.2%
same,log k (HSA),HSA [15],-0.2
same,% HSA,HSA [16],37.6%
CCCCC(=O)c1ccccc1 [Valerophenone],CHI at pH 2.6,[1],96.4
same,CHI at pH 7.4,[1],96.20
same,CHI at pH 10.5,[1],96.36
CC(=O)CC(c1ccccc1)c1c(O)c2ccccc2oc1=O (stereo not drawn) [Warfarin],log k (AGP),AGP [14],0.7
same,% AGP,AGP [5],83.2%
same,log k (HSA),HSA [15],1.5
